{
  "source": "patent US11400160B2",
  "about": "“Multifunctional conjugates” (E.P.O.S IASIS Research and Development Limited, priority 2017, dated 2022)",
  "key": {"RAW264.7 cells": {"system": "RAW264.7 cells", "test": "In vitro osteoclastogenesis of RAW264.7 (TRAP staining)", "format": "cell-based, murine", "settings": "RANKL-differentiated; γ-tocopherol at 1 μg/ml and 201 μg/ml; bpp(OEt) at increasing concentrations; FIG. 4", "procedure": "(§1) Human peripheral blood mononuclear cells (PBMCs) and the RAW264.7 murine monocytic cell line were differentiated into osteoclast-like cells in the presence of RANKL plus M-CSF and have been used as model systems of osteoclastogenesis. Osteoclast-like cells, from Giant Cell Tumours (GCT) of bone specimens from three independent donors were used to investigate the effect of compounds of the invention on the bone resorbing activity of mature osteoclasts.\n(§2) Cells were cultured in 96-well plates at a density of 1×10^4 cells/well in DMEM medium with 10% FCS, L-glutamine (2 mM) and Hepes (20 mM). Cells were allowed to attach for 4 hrs before treatment with RANKL (50 ng/ml) in the presence or absence of increasing concentrations of compounds of the invention as above. Medium and treatments were replaced on day three and TRAP activity determined on day 5. The overall number of viable cells were determined by crystal violet staining.\nOsteoclast cultures established by the differentiation of RAW264.7 cells in wells were fixed and stained for tartrate resistant acid phosphatase (TRAP) as recommended by the manufacturer on days 4 and 5. TRAP positive cells were visualised by light microscopy and images taken with a digital camera."}, "[1]": {"system": "osteoclasts from RAW264.7 and Human PBMC", "test": "Resorption on pre-loaded whale dentine / osteologic slides (pit formation)", "format": "cell-based, murine", "settings": "for effect on differentiation and activity of osteoclasts: summary statement", "excerpt": "Zoledronic acid was used as control.\nas §1\nHuman PBMCs were isolated from normal healthy donors isolated from the buffy coats acquired from the local Red Cross Blood Service. The cells were diluted in Hanks Balanced Salt Solution (HBSS) and separated by gradient centrifugation with Lymphoprep™. Isolated cells were resuspended in α MOD, 10% FCS, L-glutamine (2 mM), Hepes (20 mM), supplemented with M-CSF (25 ng/ml), 1α,25(OH)2 vitamin D3 (10 nM) and dexamethasone (10 nM) and plated into 96-well plates containing whale dentine slices, for the bone resorption assay or directly into wells for TRAP staining. The following day, media were removed and replaced with media as above, supplemented with RANKL (100 ng/ml) in the presence or absence of increasing concentrations of compounds of the invention. Medium and treatments were replaced every three days.\nas §2\nWhale dentine slices will be washed in extran, rinsed with distilled water, washed in 70% ethanol and dried overnight. The dentine slices mounted on stubs, carbon-coated and visualised on a Philips XL-20 scanning electron microscope, (SEM) as previously described. Images will be analysed using ImageQuant software and the area of resorption determined for each dentine slice (quadruplicate dentine slices for each treatment). Results are expected to be average resorption area +/− standard errors of the mean (SEM) and the significant differences between treatments will be determined using Students t-tests (2-tailed, unpaired).\nIn a separate experiment, pre-loaded bone slices (whale dentine) or commercial forms of hydroxyapatite (osteologic slides) with either free γ-tocopherol (γToc) or γ-tocopherol-bpp(OEt) (BP-γToc) and then washed away unbound drug."}, "[2]": {"system": "primary human osteoblast cultures", "test": "Osteoblast mineralization (alizarin red, calcium in cell layer)", "format": "cell-based", "settings": "up to 15 days, osteo-inductive conditions; compared to free BP; alizarin red and calcium; FIG. 6", "procedure": "The effect of free γToc and BP-γToc treatment on osteoblast function, using mineralized bone nodule-forming primary human osteoblast cultures was investigated.\nOsteoblasts harvested from human donors at the time of joint replacement surgery were cultured up to 15 days in serum-containing medium under osteo-inductive conditions."}, "[3]": {"system": "metastatic breast cancer cell lines (MCF-7, MDA-MB231, MDA-MB231TXSA)", "test": "Cell viability / antiproliferative activity, breast cancer lines", "format": "cell-based", "procedure": "Immortalised osteolytic metastatic breast cancer cell lines, a) hormone-dependent MCF-7 and b) hormone refractory MDA-MB231, together with the daughter line MDA-MB231TXSA were incubated with 5 gradual concentrations of compounds of the invention as described below. Cell viability was assessed with the crystal violet colorimetric assay and IC50s were evaluated.\nMedium was removed from cell cultures and cells were fixed with 4% v/v formaldehyde for 5 mins at room temperature. Formalin was then removed and CV added for 10 mins at room temperature followed by several washes with dsH2O. Samples were allowed to dry overnight. The following day, 10% acetic acid was added for 15 mins and optical density at 620 nm was measured. Optical densities versus compound concentrations were plotted in graphs and IC50s estimated by linear regression analysis using the WorkOut (VictorX4) software.\nMCF-7, MDA-MB231 and MDA-MB231TXSA cells were seeded in 96-well-plates and allowed to attach overnight. The following day media were replaced with fresh media containing the following compounds: Both free tetraethyl methylbisphosphonate (bpp(OEt)) and bpp(OEt) in 1:1 combination with the free chromanol and the biphosphonate conjugates were tested at 5 gradual concentrations of: 0.02, 0.04, 0.06, 0.08 and 0.1 mM.\nCells were cultured in the presence of the compounds for 72 hrs and viability was assessed on day 3 by crystal violet assay. The cell lines were selected for their high bone metastatic potential. The fluorescently transfected line MB231TXSA, derived from line MB231 is also used in animal studies (WP7)."}, "[4]": {"system": "Caspase-3 activity in MB231 breast cancer cell-line", "test": "Caspase-3 enzymatic activity assay", "format": "cell-based", "procedure": "Cells were grown in 12 well-plates in the presence of IC50 concentrations of compounds of the invention or culture medium with 0.1% v/v ethanol as control and were washed with PBS and incubated with lysis buffer for 15 mins at 4° C. Lysates were centrifuged at 15000 g. 20 μl of each lysate suspension was incubated with 100 μl of protease buffer containing 10 μM of fluorescent substrate zDEVD-AFC (3 samples/lysate) for 4 hrs at room temperature. Caspase-3 enzymatic activity was measured every 1 hr by fluorescence with excitation at 405 nm and emission at 515/30 nm.\nFluorescence measurements were plotted in graphs against time and were statistically analysed by two-way ANOVA followed by Bonferroni post-tests to identify statistically significant apoptotic activities of compounds of the invention (see FIG. 3)."}},
  "data": [
    {"compound": "Cc1c(O)cc2c(c1C)O[C@](C)(CCC[C@H](C)CCC[C@H](C)CCCC(C)C)CC2", "note": "[γ-toc, γ-tocopherol, reference compound]", "values": [
      {"measurement": "osteoclastogenesis of Raw264.7", "setting": "RAW264.7 cells", "value": "increased osteoclastogenesis"},
      {"measurement": "effect on differentiation and activity of osteoclasts", "setting": "[1]", "value": "inhibitory effect on the differentiation and activity of osteoclasts"},
      {"measurement": "matrix-containing mineralized nodules in osteoblast cultures", "setting": "[2]", "value": "progressively increased matrix-containing mineralized nodules"}
    ]},
    {"compound": "CCOP(=O)(OCC)C(CCC(=O)Oc1cc2c(c(C)c1C)OC(C)(CCCC(C)CCCC(C)CCCC(C)C)CC2)P(=O)(OCC)OCC", "note": "(centres unmarked) [γ-toc-bpp(OEt), γ-tocopheryl bisphosphonic ester]", "values": [
      {"measurement": "antiproliferative activity compared with bpp(OEt)", "setting": "[3]; esterified compounds and 1:1 mixtures", "value": "increased"},
      {"measurement": "antiproliferative activity compared with γ-tocopherol", "setting": "[3]; upon esterification of γ-tocopherol", "value": "increased"},
      {"measurement": "effect on cell viability", "setting": "[3]; viability assays and IC50s, 72 hrs", "value": "reduced cell viability"},
      {"measurement": "pro-apoptotic activity (Caspase-3 activity)", "setting": "[4]; IC50 concentrations, two-way ANOVA with Bonferroni post-tests", "value": "statistically significant pro-apoptotic activities"},
      {"measurement": "time-point at which the increased Caspase-3 activity was present", "setting": "[4]; measured every 1 hr for 4 hrs", "value": 3, "unit": "h"},
      {"measurement": "inhibition of resorption on pre-loaded substrate", "setting": "[1]; pre-loaded, washed, zoledronic acid as control, FIG. 5", "value": "inhibited resorption to an extent comparable with that seen with zoledronic acid"},
      {"measurement": "effect on differentiation and activity of osteoclasts", "setting": "[1]", "value": "retains the inhibitory activity on osteoclast differentiation and bone resorption"},
      {"measurement": "matrix-containing mineralized nodules in osteoblast cultures", "setting": "[2]", "value": "progressively increased matrix-containing mineralized nodules"}
    ]}
  ]
}
